Columns and labels:
[1] = test system: rats; test: Locomotor cell activity; assay type: in vivo, rat; details: 30 mins; for Distance travelled (% control): rats, n=8 per group
Description: (§1) All experiments were performed according to the National Health and Medical Research Council of Australia “Code of practise for the care and use of animals for scientific purposes”. Male Spraque Dawley rats, (250-270 g) are housed individually and given water and standard rat chow ad libitum. On the day of surgery, the rats were anaesthetized with 5% isofluorane, placed in a stereotaxic frame and maintained on 2% isofluorane for the duration of the cannula implantation procedure. The rats were stereotaxically implanted with chronic indwelling cannula (Plastics One) into the cerebral lateral ventricles using the following flat skull coordinates 0.8 mm posterior to Bregma, 1.55 mm lateral to midline and 3.5 mm ventral to the dura. The cannula was then secured to the skull with stainless steel screws and dental cement. Seven days following surgery, proper cannula placement was verified by a bolus injection of angiotensin II (1 nmol/μl).
Locomotor activity of rats treated with 1 nmol Compound 2 intracerebrocentricularly was monitored in special cages measuring 40×40×40 cm (Coulbourn Instruments, Philadelphia, USA) equipped with harmless infrared photobeams. Activity was measured when pairs of photobeams spaced 2.54 cm apart providing a 1.27 cm spatial resolution were crossed. Data was collected and analysed using TruScan Photo Beam Activity system (Coulbourn Instruments, Philadelphia, USA). Each rat was placed in the arena for 30 min.

[2] = test system: rats; test: Spontaneous alternation plus maze; assay type: in vivo, rat; details: for Spontaneous Alternation Score (%): rats, n=8/group
Description: as §1
The plus maze was composed of four arms with each arm measuring 75×10×20 cm. The floor and walls of the central platform and the floors of the arms were made of black plastic. Spontaneous alternation testing was conducted by placing the rat on the center platform of the maze and allowing 20 min of unimpeded exploration. The number and sequence of arm entries were recorded for calculation of a percent alternation score. An alternation consisted of 4 different arm choices of 5 consecutive arm entries. A ⅘ alternation score was computed by dividing the number of observed alternations in overlapping quintuplets by the number of possible alternations and multiplying the quotient by 100.

[3] = test system: Glucose-6-phosphate dehydrogenase/glucose hexokinase; test: Glucose-6-phosphate dehydrogenase and hexokinase activity, fluorimetric assay; details: 100 μM
Description: Glucose-6-phosphate dehydrogenase and hexokinase activity. Glucose-6-phosphate dehydrogenase and hexokinase activity in the absence and presence of the compounds was determined in a fluorimetric assay. Ten mM Tris MgCl2 buffer (total volume of 200 ml) containing glucose-6-phosphate dehydrogenase, 0.3M ATP, 30 mM NADP+ was added to 96 well microtitre plate together with 20 μl of compound, a reading at excitation 350 nm and emission 510 nm was taken followed by the addition of hexokinase and another reading.

[4] = test system: rats; test: Novel object recognition task; assay type: in vivo, rat; details: for Recognition Index: rats, n=10/group
Description: as §1
The rats are allowed at least 5 days post-operative recovery prior to use in any behavioural paradigms. On the day of the acquisition trial, the rats were habituated for 5 min in the testing box (made from grey perspex of dimensions 60 cm width×60 cm length×50 cm height) in diffuse dim light and then returned to their home cage. The animals were then rested for at least 2 h and then injected with 1 nmol or 0.1 nmol Compound 2 in 2 μl of 10% dimethyl sulfoxide (DMSO). Control animals received 2 μl of 10% DMSO. Following drug administration, the rats were returned to their home cage for 5 min and then placed in the testing box facing the opposite direction to 2 identical objects that have been secured to the floor in adjacent corners of the box. The rats were allowed 5 min to explore the objects and the definition of explore is that the animal's nose is less than 2 cm from object when it is facing the object. […] The recognition index was determined as the time spent exploring the novel object minus the time spent on the familiar object divided by the time spent on both object.

[5] = target: T1, Aminopeptidase N (Sus scrofa, UniProt P15145); test: Aminopeptidase N assay; assay type: biochemical; details: 10 μM; read-out: % inhibition of the catalytic activity of the enzyme
T1 construct: purchased Sigma Aldrich
T1 sequence (P15145 1-963): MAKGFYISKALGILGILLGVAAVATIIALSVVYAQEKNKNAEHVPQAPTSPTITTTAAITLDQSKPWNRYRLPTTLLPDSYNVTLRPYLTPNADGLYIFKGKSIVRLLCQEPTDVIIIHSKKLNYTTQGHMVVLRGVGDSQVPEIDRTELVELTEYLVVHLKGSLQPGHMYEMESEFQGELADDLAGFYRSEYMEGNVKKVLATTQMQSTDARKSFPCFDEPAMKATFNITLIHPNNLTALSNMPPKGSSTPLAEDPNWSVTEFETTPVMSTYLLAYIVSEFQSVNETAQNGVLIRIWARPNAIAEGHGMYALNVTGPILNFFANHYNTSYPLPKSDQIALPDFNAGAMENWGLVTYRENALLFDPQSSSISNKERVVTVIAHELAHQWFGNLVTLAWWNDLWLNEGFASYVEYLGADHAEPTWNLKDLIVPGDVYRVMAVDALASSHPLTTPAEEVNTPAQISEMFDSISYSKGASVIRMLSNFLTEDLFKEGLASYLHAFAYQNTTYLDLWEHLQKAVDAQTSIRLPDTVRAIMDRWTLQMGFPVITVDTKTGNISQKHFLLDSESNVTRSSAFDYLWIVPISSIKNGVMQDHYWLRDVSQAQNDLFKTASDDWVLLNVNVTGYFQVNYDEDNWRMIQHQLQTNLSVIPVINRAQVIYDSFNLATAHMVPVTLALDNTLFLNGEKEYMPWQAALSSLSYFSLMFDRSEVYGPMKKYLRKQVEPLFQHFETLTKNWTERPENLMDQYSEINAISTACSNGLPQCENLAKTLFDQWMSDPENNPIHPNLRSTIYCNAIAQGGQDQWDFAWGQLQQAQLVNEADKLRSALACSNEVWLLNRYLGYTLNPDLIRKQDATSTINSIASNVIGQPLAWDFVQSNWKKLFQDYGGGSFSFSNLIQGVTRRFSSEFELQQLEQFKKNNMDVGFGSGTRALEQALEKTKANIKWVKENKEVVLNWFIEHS
Description: Aminopeptidase N assay. 5 mU of aminopeptidase M (Sigma Aldrich) was incubated with 100 μM of substrate alanine-β-naphthylamide (Sigma Aldrich) in Tris buffered saline (50 mM Tris-HCl, 150 mM NaCl pH 7.5) at 25° C. IRAP inhibitors (1-10 μM) were added after 1 minute and fluorescence at 405 nm was followed.
(§2) Limited inhibition of control enzymes was observed.

[6] = target: Angiotensin converting enzyme 1 (Homo sapiens, UniProt P12821); test: Angiotensin converting enzyme assay; assay type: biochemical; details: read-out: % inhibition of the catalytic activity of the enzyme
Angiotensin converting enzyme 1, sequence (P12821 30-1306): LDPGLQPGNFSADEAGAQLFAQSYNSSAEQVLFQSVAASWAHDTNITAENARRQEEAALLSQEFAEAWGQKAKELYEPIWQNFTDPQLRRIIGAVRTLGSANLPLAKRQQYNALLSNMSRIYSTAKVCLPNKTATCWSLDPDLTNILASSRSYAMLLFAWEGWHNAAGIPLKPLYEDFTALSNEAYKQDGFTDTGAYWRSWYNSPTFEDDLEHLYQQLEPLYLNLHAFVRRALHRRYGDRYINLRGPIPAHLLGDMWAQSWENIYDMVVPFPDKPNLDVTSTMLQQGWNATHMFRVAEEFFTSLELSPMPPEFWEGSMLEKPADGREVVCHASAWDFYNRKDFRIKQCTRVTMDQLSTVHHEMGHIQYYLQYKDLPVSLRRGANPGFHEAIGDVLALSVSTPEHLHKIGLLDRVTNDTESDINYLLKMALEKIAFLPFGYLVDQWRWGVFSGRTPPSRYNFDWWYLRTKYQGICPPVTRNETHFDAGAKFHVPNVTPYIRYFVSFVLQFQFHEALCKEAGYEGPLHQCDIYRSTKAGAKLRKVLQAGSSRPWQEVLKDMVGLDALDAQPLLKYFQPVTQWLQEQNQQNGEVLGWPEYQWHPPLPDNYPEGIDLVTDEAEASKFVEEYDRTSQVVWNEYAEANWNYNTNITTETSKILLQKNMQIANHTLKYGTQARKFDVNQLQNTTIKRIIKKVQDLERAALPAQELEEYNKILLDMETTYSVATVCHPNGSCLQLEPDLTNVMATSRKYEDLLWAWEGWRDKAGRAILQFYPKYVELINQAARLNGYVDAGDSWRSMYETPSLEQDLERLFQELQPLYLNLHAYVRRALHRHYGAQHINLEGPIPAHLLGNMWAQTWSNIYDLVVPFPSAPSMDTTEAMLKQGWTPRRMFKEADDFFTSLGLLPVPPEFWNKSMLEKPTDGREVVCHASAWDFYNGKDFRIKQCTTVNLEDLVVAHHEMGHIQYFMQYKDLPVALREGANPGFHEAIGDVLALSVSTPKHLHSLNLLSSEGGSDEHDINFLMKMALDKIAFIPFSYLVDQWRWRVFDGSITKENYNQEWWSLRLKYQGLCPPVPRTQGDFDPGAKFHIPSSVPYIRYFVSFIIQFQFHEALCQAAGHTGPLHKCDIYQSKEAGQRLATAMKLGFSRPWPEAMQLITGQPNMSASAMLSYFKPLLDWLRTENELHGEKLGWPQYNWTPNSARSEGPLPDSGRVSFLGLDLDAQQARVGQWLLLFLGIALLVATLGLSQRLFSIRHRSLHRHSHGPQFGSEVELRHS
Description: Angiotensin converting enzyme assay. The enzyme (final concentration 0.02 pmol/100 L) was incubated with 200 μL of assay solution that included 5 mmol/L HHL in 100 mmol/L potassium buffer (pH 8.3) that contained 300 mmol/L NaCl and 10^−4 mol/L ZnSO4 for 3 hours at 37° C. The enzymatic reaction was stopped by the addition of 1.5 mL of 0.28N NaOH, 100 μL of o-phthaldialdehyde (20 mg/mL) in methanol was added and the fluorescent reaction stopped by the addition of 200 μL of 3N HCl. The product, L-His-Leu, was measured fluorometrically (360 nm excitation and 500 nm emission).
as §2

[7] = 0.1 nmol intracerebroventricularly
[8] = 1 nmol intracerebroventricularly

Distance travelled (% control) [1, 7]: 85.12 ± 12.99 % control
Distance travelled (% control) [1, 8]: 90.16 ± 6.73 % control
% inhibition of the catalytic activity of the enzyme [3]: 0%
inhibition at 10 µM [5]: 13%
inhibition at 10 µM ([6]; 10 μM): 9%
inhibition at 100 µM ([6]; 100 μM): 3%
SMILES: CCOC(=O)C1=C(NC(C)=O)Oc2cc(O)ccc2C1c1cccnc1 (stereo not shown) [Compound 2, Ethyl 2-(acetylamino)-7-hydroxy-4-pyridin-3-yl-4H-chromene-3-carboxylate]
locomotor activity compared to vehicle, by crossing of infrared beams and total distance travelled ([1]; 0.1 and 1 nmol intracerebroventricularly): did not exhibit increased or decreased locomotor activity
Spontaneous Alternation Score (%) [2, 7]: 73.70 ± 3.14 %
spontaneous alternation scores compared to vehicle treated control rats ([2]; 0.1 nmole, p<0.01): significantly enhanced spontaneous alternation scores
Spontaneous Alternation Score (%) [2, 8]: 64.34 ± 2.49%
Recognition Index [4, 7]: 35.82 ± 7.30
Recognition Index [4, 8]: 45.09 ± 9.97
recognition of a novel object compared to vehicle treated control rats ([4]; 1 and 0.1 nmole intracerebroventricularly, after 24 h, p<0.05): better recognition of a novel object

— patent US8377963B2, “Insulin-regulated aminopeptidase (IRAP) inhibitors and uses thereof” (Howard Florey Institute, priority 2007, dated 2013)
